Test results taken from patent publication US10266526B2, “Substituted 1,2,3-triazoles as SMYD inhibitors for treating cancer” (EPIZYME, INC., priority 2014, dated 2019).

Target: SMYD2 (Homo sapiens (Human), UniProt Q9NRG4)
Experiment: SMYD2 biochemical assay (SMYD2 enzyme assay on peptide substrate, 3H-SAM Flashplate)
Conditions: read-out: SMYD2 Biochem IC50; IC50 values are an average of n = 1 to n = 50
Source text: S-adenosylmethionine (SAM), S-adenosylhomocysteine (SAH), bicine, Tween20, dimethylsulfoxide (DMSO), bovine skin gelatin (BSG), and Tris(2-carboxyethyl)phosphine hydrochloride (TCEP) were purchased from Sigma-Aldrich at the highest level of purity possible. ^3H-SAM was purchase from American Radiolabeled Chemicals with a specific activity of 80 Ci/mmol. 384-well streptavidin Flashplates were purchased from PerkinElmer.
The sequence was [sequence](K-Biot)-amide.
Production of Recombinant SMYD2 Enzymes for Biochemical Enzyme Activity Assays
Full length SMYD2 (NP_064582.2) was cloned into a pFastbac-Htb-lic vector with an N-terminal His6 tag and FLAG tag, preceded by a TEV protease cleavage site. The protein was expressed in Sf9 insect cells. Cells were resuspended in lysis buffer (25 mM HEPES-NaOH, pH 7.5, 200 mM NaCl, 5% glycerol, and 5 mM (3-ME) and lysed by sonication. The protein was purified by Ni-NTA (Qiagen), followed by TEV cleavage to remove the His6 tag, subtractive Ni-NTA (Qiagen), and gel filtration chromatography using an S200 column (GE Healthcare). Purified protein was stored in 20 mM Tris-HCl, pH 8.0, 100 mM NaCl, and 1 mM TCEP.
General Procedure for SMYD2 Enzyme Assays on Peptide Substrates
The assays were all performed in a buffer consisting of 20 mM Bicine (pH=7.6), 1 mM TCEP, 0.005% Bovine Skin Gelatin, and 0.002% Tween20, prepared on the day of use. […] DMSO (1 ul) was added to Columns 11, 12, 23, 24, rows A-H for the maximum signal control and 1 ul of SAH, a known product and inhibitor of SMYD2, was added to columns 11, 12, 23, 24, rows I-P for the minimum signal control. A cocktail (40 ul) containing the SMYD2 enzyme was added by Multidrop Combi (Thermo-Fisher). The compounds were allowed to incubate with SMYD2 for 30 min at room temperature, then a cocktail (10 ul) containing ^3H-SAM and peptide was added to initiate the reaction (final volume=51 ul). […] The assays were stopped by the addition of non-radioactive SAM (10 ul) to a final concentration of 600 uM, which dilutes the ^3H-SAM to a level where its incorporation into the peptide substrate is no longer detectable. 50 ul of the reaction in the 384-well polypropylene plate was then transferred to a 384-well Flashplate and the biotinylated peptides were allowed to bind to the streptavidin surface for at least 1 hour before being washed three times with 0.1% Tween20 in a Biotek ELx405 plate washer. The plates were then read in a PerkinElmer TopCount plate reader to measure the quantity of ^3H-labeled peptide bound to the Flashplate surface, measured as disintegrations per minute (dpm) or alternatively, referred to as counts per minute (cpm).
Where dpm=disintegrations per minute, cmpd=signal in assay well, and min and max are the respective minimum and maximum signal controls.
Where top and bottom are the normally allowed to float, but may be fixed at 100 or 0 respectively in a 3-parameter fit. The Hill Coefficient normally allowed to float but may also be fixed at 1 in a 3-parameter fit. I is the compound concentration.

SMYD2, sequence (Q9NRG4 whole entry): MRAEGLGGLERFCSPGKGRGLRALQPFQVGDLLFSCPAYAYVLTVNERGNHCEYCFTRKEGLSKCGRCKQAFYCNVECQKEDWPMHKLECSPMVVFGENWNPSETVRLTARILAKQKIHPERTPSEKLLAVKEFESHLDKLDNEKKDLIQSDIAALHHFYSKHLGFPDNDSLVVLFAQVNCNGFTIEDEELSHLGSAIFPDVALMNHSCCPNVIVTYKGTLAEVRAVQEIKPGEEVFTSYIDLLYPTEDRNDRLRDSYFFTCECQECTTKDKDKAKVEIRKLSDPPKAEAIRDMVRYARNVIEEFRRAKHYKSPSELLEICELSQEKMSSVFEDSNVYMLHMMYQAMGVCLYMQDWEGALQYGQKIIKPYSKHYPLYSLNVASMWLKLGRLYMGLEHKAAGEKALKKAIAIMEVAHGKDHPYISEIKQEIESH

| IC50 [µM] | Structure (SMILES) |
| --- | --- |
| 0.87 | CC(c1ccc(COc2ccccc2)cc1)N1CC(NC(=O)c2cn(C3CC3)nn2)C1 (centres unmarked) [compound 974, 1-cyclopropyl-N-(1-(1-(4-(phenoxymethyl)phenyl)ethyl)azetidin-3-yl)-1H-1,2,3-triazole-4-carboxamide] |
| 5.4 | CNCCOc1cccc(C(C)N2CC(NC(=O)c3cn(C4CC4)nn3)C2)c1Cl (centres unmarked) [compound 975, N-(1-(1-(2-chloro-3-(2-(methylamino)ethoxy)phenyl)ethyl)azetidin-3-yl)-1-cyclopropyl-1H-1,2,3-triazole-4-carboxamide] |
| 1.8 | CC(c1cc(Cl)ccc1C(F)(F)F)N1CC(NC(=O)c2cn(C3CC3)nn2)C1 (centres unmarked) [compound 976, N-(1-(1-(5-chloro-2-(trifluoromethyl)phenyl)ethyl)azetidin-3-yl)-1-cyclopropyl-1H-1,2,3-triazole-4-carboxamide] |
| 7.5 | CC(c1cccc(OCCN(C)C)c1Cl)N1CC(NC(=O)c2cn(C3CC3)nn2)C1 (centres unmarked) [compound 977, N-(1-(1-(2-chloro-3-(2-(dimethylamino)ethoxy)phenyl)ethyl)azetidin-3-yl)-1-cyclopropyl-1H-1,2,3-triazole-4-carboxamide] |
| 1.1 | CC(O)COc1cccc(C(C)N2CC(NC(=O)c3cn(C4CC4)nn3)C2)c1Cl (centres unmarked) [compound 978, N-(1-(1-(2-chloro-3-(2-hydroxypropoxy)phenyl)ethyl)azetidin-3-yl)-1-cyclopropyl-1H-1,2,3-triazole-4-carboxamide] |
| > 50 | CC(NC(=O)c1cn(C2CC2)nn1)C1CCCCN1C (centres unmarked) [compound 979, 1-cyclopropyl-N-(1-(1-methylpiperidin-2-yl)ethyl)-1H-1,2,3-triazole-4-carboxamide] |
| 0.99 | CC(C)(c1ccc(OCc2ccccc2)cc1)N1CC(NC(=O)c2cn(C3CC3)nn2)C1 [compound 980, N-(1-(2-(4-(benzyloxy)phenyl)propan-2-yl)azetidin-3-yl)-1-cyclopropyl-1H-1,2,3-triazole-4-carboxamide] |
| > 50 | CC(NC(=O)c1cc(C2CC2)cnn1)C1CCCCN1C (centres unmarked) [compound 981, 5-cyclopropyl-N-(1-(1-methylpiperidin-2-yl)ethyl)pyridazine-3-carboxamide] |
| 0.169 | COc1cccc(Cn2cc(CN3CC(NC(=O)c4cn(C5CC5)nn4)C3)cn2)c1 [compound 982, 1-cyclopropyl-N-(1-((1-(3-methoxybenzyl)-1H-pyrazol-4-yl)methyl)azetidin-3-yl)-1H-1,2,3-triazole-4-carboxamide] |
| 1.39 | O=C(NC1CN(Cc2ccc(C(O)Cc3ccccc3)cc2)C1)c1cn(C2CC2)nn1 (centres unmarked) [compound 983, 1-cyclopropyl-N-(1-(4-(1-hydroxy-2-phenylethyl)benzyl)azetidin-3-yl)-1H-1,2,3-triazole-4-carboxamide] |
| 0.0039 | O=C(NC1CN(Cc2cnn(Cc3ccc(Cl)cc3)c2)C1)c1cn(C2CC2)nn1 [compound 985, N-(1-((1-(4-Chlorobenzyl)-1H-pyrazol-4-yl)methyl)azetidin-3-yl)-1-cyclopropyl-1H-1,2,3-triazole-4-carboxamide] |
| > 50 | O=C(NC1CN(Cc2cnn(Cc3ccccc3)c2)C1)c1ncc(C2CC2)[nH]1 [compound 986, N-(1-((1-benzyl-1H-pyrazol-4-yl)methyl)azetidin-3-yl)-5-cyclopropyl-1H-imidazole-2-carboxamide] |
| 0.024 | O=C(NC1CN(Cc2cnn(Cc3cccc(Cl)c3)c2)C1)c1cn(C2CC2)nn1 [compound 987, N-(1-((1-(3-chlorobenzyl)-1H-pyrazol-4-yl)methyl)azetidin-3-yl)-1-cyclopropyl-1H-1,2,3-triazole-4-carboxamide] |
| 1.9 | O=C(NC1CN(Cc2ccc(OCc3nncs3)cc2)C1)c1cn(C2CC2)nn1 [compound 988, N-(1-(4-((1,3,4-thiadiazol-2-yl)methoxy)benzyl)azetidin-3-yl)-1-cyclopropyl-1H-1,2,3-triazole-4-carboxamide] |
| > 50 | CC(c1cc(Cl)ccc1Oc1ccc(F)cc1)N1CC(NC(=O)c2cn(C3CC3)nn2)C1 (centres unmarked) [compound 989, N-(1-(1-(5-chloro-2-(4-fluorophenoxy)phenyl)ethyl)azetidin-3-yl)-1-cyclopropyl-1H-1,2,3-triazole-4-carboxamide] |
| 0.76 | O=C(NC1CN(Cc2cnn(Cc3nccs3)c2)C1)c1cn(C2CC2)nn1 [compound 991, 1-cyclopropyl-N-(1-((1-(thiazol-2-ylmethyl)-1H-pyrazol-4-yl)methyl)azetidin-3-yl)-1H-1,2,3-triazole-4-carboxamide] |
| 2.7 | O=C(NC1CN(Cc2ccc(OCc3ccccn3)cc2)C1)c1cn(C2CC2)nn1 [compound 992, 1-cyclopropyl-N-(1-(4-(pyridin-2-ylmethoxy)benzyl)azetidin-3-yl)-1H-1,2,3-triazole-4-carboxamide] |

| IC50 [µM] | Structure (SMILES) |
| --- | --- |
| 0.016 | Cc1ccc(Cn2cc(CN3CC(NC(=O)c4cn(C5CC5)nn4)C3)cn2)cc1 [compound 993, 1-cyclopropyl-N-(1-((1-(4-methylbenzyl)-1H-pyrazol-4-yl)methyl)azetidin-3-yl)-1H-1,2,3-triazole-4-carboxamide] |
| 5.4 | CC(c1ccc(=O)[nH]c1)N1CC(NC(=O)c2cn(C3CC3)nn2)C1 (centres unmarked) [compound 994, 1-cyclopropyl-N-(1-(1-(6-oxo-1,6-dihydropyridin-3-yl)ethyl)azetidin-3-yl)-1H-1,2,3-triazole-4-carboxamide] |
| 1.3 | COc1ccccc1Cn1cc(CN2CC(NC(=O)c3cn(C4CC4)nn3)C2)cn1 [compound 995, 1-cyclopropyl-N-(1-((1-(2-methoxybenzyl)-1H-pyrazol-4-yl)methyl)azetidin-3-yl)-1H-1,2,3-triazole-4-carboxamide] |
| 1.1 | O=C(NC1CN(Cc2ccc(OCc3cscn3)cc2)C1)c1cn(C2CC2)nn1 [compound 999, 1-cyclopropyl-N-(1-(4-(thiazol-4-ylmethoxy)benzyl)azetidin-3-yl)-1H-1,2,3-triazole-4-carboxamide] |
| > 50 | CC(NC(=O)c1cn(C2CC2)nn1)C1CCCCN1 (centres unmarked) [compound 1000, 1-cyclopropyl-N-(1-(piperidin-2-yl)ethyl)-1H-1,2,3-triazole-4-carboxamide] |
| 1.4 | O=C(NC1CN(Cc2cnn(CC3CCC3)c2)C1)c1cn(C2CC2)nn1 [compound 1001, N-(1-((1-(cyclobutylmethyl)-1H-pyrazol-4-yl)methyl)azetidin-3-yl)-1-cyclopropyl-1H-1,2,3-triazole-4-carboxamide] |
| 0.088 | COc1ccc(C(C)N2CC(NC(=O)c3cn(C4CC4)nn3)C2)c(Cl)c1 (centres unmarked) [compound 1002, N-(1-(1-(2-chloro-4-methoxyphenyl)ethyl)azetidin-3-yl)-1-cyclopropyl-1H-1,2,3-triazole-4-carboxamide] |
| 19 | CC(NC(=O)c1cc(C2CC2)cnn1)C1CCCCN1 (centres unmarked) [compound 1003, 5-cyclopropyl-N-(1-(piperidin-2-yl)ethyl)pyridazine-3-carboxamide] |
| 0.13 | COc1cccc(C(C)N2CC(NC(=O)c3cc(C4CC4)ccn3)C2)c1OC (centres unmarked) [compound 1005, 4-cyclopropyl-N-(1-(1-(2,3-dimethoxyphenyl)ethyl)azetidin-3-yl)picolinamide] |
| 1.7 | O=C(NC1CN(Cc2cnn(CC3CC3)c2)C1)c1cn(C2CC2)nn1 [compound 1006, 1-cyclopropyl-N-(1-((1-(cyclopropylmethyl)-1H-pyrazol-4-yl)methyl)azetidin-3-yl)-1H-1,2,3-triazole-4-carboxamide] |
| 0.072 | O=C(NC1CN(Cc2cnn(Cc3ccccc3)c2)C1)c1nnc(C2CC2)s1 [compound 1007, N-(1-((1-benzyl-1H-pyrazol-4-yl)methyl)azetidin-3-yl)-5-cyclopropyl-1,3,4-thiadiazole-2-carboxamide] |
| 5.7 | CC(c1cccc(OCCN)c1Cl)N1CC(NC(=O)c2cn(C3CC3)nn2)C1 (centres unmarked) [compound 1009, N-(1-(1-(3-(2-aminoethoxy)-2-chlorophenyl)ethyl)azetidin-3-yl)-1-cyclopropyl-1H-1,2,3-triazole-4-carboxamide] |
| 0.95 | CC(=O)Nc1ccc(COc2ccc(C(C)N3CC(NC(=O)c4cn(C5CC5)nn4)C3)cc2)cc1 (centres unmarked) [compound 1020, N-(1-(1-(4-((4-acetamidobenzyl)oxy)phenyl)ethyl)azetidin-3-yl)-1-cyclopropyl-1H-1,2,3-triazole-4-carboxamide] |
| 0.065 | O=C(NC1CN(Cc2cnn(Cc3ccccc3)c2)C1)c1nnc(C2CC2)o1 [compound 1021, N-(1-((1-benzyl-1H-pyrazol-4-yl)methyl)azetidin-3-yl)-5-cyclopropyl-1,3,4-oxadiazole-2-carboxamide] |
| 0.073 | O=C(NC1CN(Cc2cnn(Cc3ccccc3)c2)C1)c1cn(C2CC2)cn1 [compound 1022, N-(1-((1-benzyl-1H-pyrazol-4-yl)methyl)azetidin-3-yl)-1-cyclopropyl-1H-imidazole-4-carboxamide] |
| 1.2 | Cn1cc(COc2ccc(CN3CC(NC(=O)c4cn(C5CC5)nn4)C3)cc2)cn1 [compound 1025, 1-cyclopropyl-N-(1-(4-((1-methyl-1H-pyrazol-4-yl)methoxy)benzyl)azetidin-3-yl)-1H-1,2,3-triazole-4-carboxamide] |

| Structure (SMILES) | IC50 [µM] |
| --- | --- |
| CN1[C@@H]2CC[C@H]1C[C@H](NC(=O)c1cc(C3CC3)cnn1)C2 [compound 1023, 5-cyclopropyl-N-((1R,3s,5S)-8-methyl-8-azabicyclo[3.2.1]octan-3-yl)pyridazine-3-carboxamide] | 6.3 |
| CN1[C@@H]2CC[C@H]1C[C@@H](NC(=O)c1cc(C3CC3)cnn1)C2 [compound 1024, 5-cyclopropyl-N-((1R,3r,5S)-8-methyl-8-azabicyclo[3.2.1]octan-3-yl)pyridazine-3-carboxamide] | > 50 |
